Assays:
Assay type in all cases: cell-based
[1] = test system: Staphylococcus aureus (JCM-2151); test: Viability assay (survival rate) in cow's milk medium; parameters: key to survival rate: % of control colony count 1 (control colony count 2 at peptide 0); settings: for antimicrobial activity of the compound added without antimicrobial peptide or lactoferrin hydrolysate (in words): compound alone; for effect of the coexisting compound on the antimicrobial activity of the lactoferrin hydrolysate (in words): with lactoferrin hydrolysate 1
Description: The colonies grown on the culture medium were scraped by a platinum loop and cultivated in 1% peptone (by Difco Company) culture medium for several hours at 37° C., and the resultant microbial culture at logarithmic phase was used as the preculture in a serial concentration of 3×10^8 /ml.
A quantity of the resultant solutions of the samples were selectively mixed with a quantity of the basal medium, thereby test media for the respective tests were prepared in the combinations and eventual concentrations as specified in the respective tests.
Utilizing the samples (5), (7), (8), (9), (10), (14), (15), (17), (18) and (19), test media were prepared in the same manner as in the preparation of the test media containing sample (3) and the like, except that the aqueous solution (in the cases of samples (5) and (7), aqueous suspensions) were not dealt with sterilization filters.
To 2 ml aliquots of test media prepared in (3-1) (supra), […] aliquots of the preculture of Staphylococcus aureus prepared in (1) (2. Method, supra) were added, then incubated at 37° C. for 1 hour, 200 μl aliquots of the resultant cultures were taken out and diluted with 1% peptone solution in a series of 10^n respectively, 110 μl aliquots of the resultant dilution series were spread onto plates of standard agar culture medium, and after incubation at 37° C. for 24 hours the number of colonies grown on the plates were counted (Test. Colony Count).
Control coloney counts 1 were determined in the same manner as in the determination of the test coloney counts, except that […] aliquots of the preculture of Staphylococcus aureus prepared in (1) (2. Method, supra) were added to 2 ml aliquots of the respective control media 1 prepared in (3-2) (supra). Furthermore, control coloney counts 2 were determined in the same manner as in the determination of the test coloney counts, except that […] aliquots of the preculture of Staphylococcus aureus prepared in (1) (supra) were added to 2 ml aliquots of the respective control media 1 prepared in (3-2) (supra).
Survival rate 1=(Test Colony Count/Control Colony Count 1)×100
Survival rate 2=(Control Colony Count 2/Control Colony Count 1)×100
(Note: In the tables shown hereinafter, vulues of survival rate 2 are indicated in the row where the concentration of antimicrobial peptide or lactoferrin hydrolysate is 0.)

[2] = test system: Staphylococcus aureus JCM2151; test: Test for antimicrobial activity (turbidity): growth inhibiting concentration of antibiotics; settings: for MIC: Staphylococcus aureus
Description: (§1) Precultures of test microorganisms to be used in the tests described hereunder were prepared in such a manner that: from the frozen preservation of dispersions of test microorganisms, a loop of the respective strains of the microorganisms were taken out and spread onto TRI PETIT CASE SOYA AGAR MEDIA (by BBL Company), and incubated at 37° C. for 16 hours; the colonies grown on the culture media were scraped by a platinum loop and cultivated in 2.1% Mueller-Hington Broth (by Difco Company) respectively for several hours at 37° C. The resultant microbial cultures at logarithmic phase in 3×10^8 /ml of microbial concentration were used as the precultures.
(§2) The test media to be used in the respective tests were prepared in such a manner that: aqueous solutions in a predetermined concentration of the lactoferrin hydrolysates or the lactoferrin-derived antimicrobial peptides of (1) and (2) in Preparation of Samples (supra), as well as the samples of antibiotics of (3) (supra) were respectively sterilized with filters (by Advantec Company); then a quantity of the resultant solutions of respective samples were selectively added to a quantity of basal medium (Mueller-Hington Broth) prepared in the eventual concentration of 2.1%, thereby combinations of the samples and their concentrations in the respective test media were adjusted as specified in the respective tests.
(§3) Antimicrobial activity was examined as follows: A quantity of the respective precultures prepared in (1) immediately above was diluted with 2.1% Mueller-Hington Broth to result in 2×10^6 /ml of microbial concentration; 100 μl aliquots of the resultant liquid were added to 100 μl aliquots of one of the test media as specified in the respective test; the resultant media were incubated at 37° C. for 16 hours; then the turbidity of the resultant culture broths were measured thereby antimicrobial activity was examined.
(§4) Components in the test and control media and eventual concentrations thereof were adjusted by properly combining 0 mg, 0.4 mg, 1.6 mg and 6.4 mg/ml of lactoferrin hydrolysate of (1) (in Preparation of Samples, supra). or 0 μg, 16 μg, 64 μg, and 256 μg/ml of lactoferrin-derived antimicrobial peptides of (2) (in Preparation of Samples, supra), and 0 μg, 0.01 μg, 0.1 μg, 1 μg, and 10 μg/ml of antibiotics of (3) (supra), then antimicrobial activity of the combined use of the components against Escherichia coli 0-111 and Staphylococcus aureus (JCM2151) as well as growth inhibiting concentrations of the antibiotics were investigated.

Escherichia coli 0-111 = test: as above
Description: as §1, §2, §3, §4

[3] = with antimicrobial peptide Seq. ID No. 26
[4] = JCM2151, antimicrobial peptide (Seq. ID No. 27) 0 μg/ml
[5] = JCM2151, antimicrobial peptide (Seq. ID No. 27) 16 μg/ml
[6] = JCM2151, antimicrobial peptide (Seq. ID No. 27) 64 μg/ml
[7] = JCM2151, antimicrobial peptide (Seq. ID No. 27) 256 μg/ml
[8] = lactoferrin hydrolysate 0 mg/ml
[9] = lactoferrin hydrolysate 0.4 mg/ml
[10] = lactoferrin hydrolysate 1.6 mg/ml
[11] = lactoferrin hydrolysate 6.4 mg/ml
[12] = Escherichia coli, 0111, antimicrobial peptide (Seq. ID No. 27) 0 μg/ml
[13] = Escherichia coli, 0111, antimicrobial peptide (Seq. ID No. 27) 16 μg/ml
[14] = Escherichia coli, 0111, antimicrobial peptide (Seq. ID No. 27) 64 μg/ml
[15] = Escherichia coli, 0111, antimicrobial peptide (Seq. ID No. 27) 256 μg/ml

## OCC(O)CO [glycerol, Glycerol]
[1]
  antimicrobial activity of the compound added without antimicrobial peptide or lactoferrin hydrolysate (in words): no antimicrobial activity was observed
[1]; [3]
  effect of the coexisting compound on the antimicrobial activity of the antimicrobial peptide (in words): augments the antimicrobial activity of the peptide

## CCCCCCCC(=O)OCC(O)CO (racemic) [monocapryloyl-glycerol, 1-Monocapryloyl-rac-Glycerol]
[1]
  antimicrobial activity of the compound added without antimicrobial peptide or lactoferrin hydrolysate (in words): no antimicrobial activity was observed
[1]; [3]
  effect of the coexisting compound on the antimicrobial activity of the antimicrobial peptide (in words): augments the antimicrobial activity of the peptide

## Polyphosphoric Acid
[1]; Test 12: lactoferrin hydrolysate 0, polyphosphoric acid 0.1 mg/ml
  survival rate: 140
[1]; Test 12: lactoferrin hydrolysate 0, polyphosphoric acid 1 mg/ml
  survival rate: 124
[1]; Test 12: lactoferrin hydrolysate 0, polyphosphoric acid 5 mg/ml
  survival rate: 111
[1]
  antimicrobial activity of the compound added without antimicrobial peptide or lactoferrin hydrolysate (in words): no antimicrobial activity was observed
  effect of the coexisting compound on the antimicrobial activity of the lactoferrin hydrolysate (in words): augments the antimicrobial activity of the lactoferrin hydrolysate 1

## O=C([O-])CN(CCN(CC(=O)[O-])CC(=O)O)CC(=O)O.[Na+].[Na+] [EDTA.Na2, EDTA·Na2]
[1]; Test 9: lactoferrin hydrolysate 0, EDTA.Na2 0.1 mg/ml
  survival rate: 122
[1]; Test 9: lactoferrin hydrolysate 0, EDTA.Na2 1 mg/ml
  survival rate: 115
[1]; Test 9: lactoferrin hydrolysate 0, EDTA.Na2 5 mg/ml
  survival rate: 101
[1]
  antimicrobial activity of the compound added without antimicrobial peptide or lactoferrin hydrolysate (in words): no antimicrobial activity was observed
  effect of the coexisting compound on the antimicrobial activity of the lactoferrin hydrolysate (in words): augments the antimicrobial activity of the lactoferrin hydrolysate

## CCCCCCCCCCCCCC(=O)OCC(O)CO (racemic) [1-monomyristoyl-rac-glycerol, 1-monomyristoyl-rac-Glycerol]
[1]
  antimicrobial activity of the compound added without antimicrobial peptide or lactoferrin hydrolysate (in words): the antimicrobial activity is low
[1]; [3]
  effect of the coexisting compound on the antimicrobial activity of the antimicrobial peptide (in words): augmented the antimicrobial activity of the peptide

## OC[C@H]1O[C@@H]2O[C@H]3[C@H](O)[C@@H](O)[C@@H](O[C@H]4[C@H](O)[C@@H](O)[C@@H](O[C@H]5[C@H](O)[C@@H](O)[C@@H](O[C@H]6[C@H](O)[C@@H](O)[C@@H](O[C@H]7[C@H](O)[C@@H](O)[C@@H](O[C@H]8[C@H](O)[C@@H](O)[C@@H](O[C@H]1[C@H](O)[C@H]2O)O[C@@H]8CO)O[C@@H]7CO)O[C@@H]6CO)O[C@@H]5CO)O[C@@H]4CO)O[C@@H]3CO [β-cyclodextrin, β-Cyclodextrin]
[1]; Test 4: peptide 0, β-cyclodextrin 0.1 mg/ml
  survival rate: 100
[1]; Test 4: peptide 0, β-cyclodextrin 1 mg/ml
  survival rate: 109
[1]; Test 4: peptide 0, β-cyclodextrin 2.5 mg/ml
  survival rate: 88
[1]
  antimicrobial activity of the compound added without antimicrobial peptide or lactoferrin hydrolysate (in words): no antimicrobial activity was observed
[1]; [3]
  effect of the coexisting compound on the antimicrobial activity of the antimicrobial peptide (in words): augments the antimicrobial activity of the peptide

## C[C@H](CCC(=O)O)[C@H]1CC[C@H]2[C@@H]3[C@H](O)C[C@@H]4C[C@H](O)CC[C@]4(C)[C@H]3C[C@H](O)[C@]12C [cholic acid, Cholic Acid]
[1]; Test 22: peptide 0, 1-monolauroyl-rac-glycerol 0, cholic acid 1 mg/ml
  survival rate: 92%
[1]
  antimicrobial activity of the compound added without antimicrobial peptide or lactoferrin hydrolysate (in words): no antimicrobial activity was observed
  effect of the coexisting compound on the antimicrobial activity of the lactoferrin hydrolysate (in words): augments the antimicrobial activity of the lactoferrin hydrolysate 1
[1]; [3]
  effect of the coexisting compound on the antimicrobial activity of the antimicrobial peptide (in words): further augments the antimicrobiaI activity of the peptide

## CC(O)CO (stereo not shown) [propylene glycol, Propylene Glycol]
[1]
  antimicrobial activity of the compound added without antimicrobial peptide or lactoferrin hydrolysate (in words): no antimicrobial activity was observed
[1]; [3]
  effect of the coexisting compound on the antimicrobial activity of the antimicrobial peptide (in words): augmented the antimicrobial activity of the peptide

## N[C@@H](CS)C(=O)O [L-cysteine, L-Cysteine]
[1]
  antimicrobial activity of the compound added without antimicrobial peptide or lactoferrin hydrolysate (in words): antimicrobial activity was low
[1]; with antimicrobial peptide Seq. ID No. 27
  effect of the coexisting compound on the antimicrobial activity of the antimicrobial peptide (in words): augments the antimicrobial activity of the peptide

## CC(=O)OCC1=C(C(=O)O)N2C(=O)[C@@H](NC(=O)Cc3cccs3)[C@H]2SC1 [cephalothin]
[2]; [4]
  MIC: > 1 µg/mL
[2]; [5]
  MIC: 1 µg/mL
[2]; [6]
  MIC: 1 µg/mL
[2]; [7]
  MIC: 0.01 µg/mL
[2]; [8]
  Growth inhibiting Concentration of antibiotics: > 1 µg/mL
[2]; [9]
  Growth inhibiting Concentration of antibiotics: 1 µg/mL
[2]; [10]
  Growth inhibiting Concentration of antibiotics: 1 µg/mL
[2]; [11]
  Growth inhibiting Concentration of antibiotics: 0.01 µg/mL
Escherichia coli 0-111; [12]
  MIC: > 1 µg/mL
Escherichia coli 0-111; [13]
  MIC: > 1 µg/mL
Escherichia coli 0-111; [14]
  MIC: 1 µg/mL
Escherichia coli 0-111; [15]
  MIC: 0.01 µg/mL
Escherichia coli 0-111; [8]
  Growth inhibiting Concentration of antibiotics: > 1 µg/mL
Escherichia coli 0-111; [9]
  Growth inhibiting Concentration of antibiotics: > 1 µg/mL
Escherichia coli 0-111; [10]
  Growth inhibiting Concentration of antibiotics: 1 µg/mL
Escherichia coli 0-111; [11]
  Growth inhibiting Concentration of antibiotics: 0.01 µg/mL

## CC1(C)S[C@@H]2[C@H](NC(=O)[C@H](N)c3ccccc3)C(=O)N2[C@H]1C(=O)O [ampicillin]
[2]; [4]
  MIC: > 1 µg/mL
[2]; [5]
  MIC: 1 µg/mL
[2]; [6]
  MIC: 1 µg/mL
[2]; [7]
  MIC: 0.1 µg/mL
[2]; [8]
  Growth inhibiting Concentration of antibiotics: > 1 µg/mL
[2]; [9]
  Growth inhibiting Concentration of antibiotics: 1 µg/mL
[2]; [10]
  Growth inhibiting Concentration of antibiotics: 1 µg/mL
[2]; [11]
  Growth inhibiting Concentration of antibiotics: 0.1 µg/mL
Escherichia coli 0-111; [12]
  MIC: > 1 µg/mL
Escherichia coli 0-111; [13]
  MIC: 1 µg/mL
Escherichia coli 0-111; [14]
  MIC: 1 µg/mL
Escherichia coli 0-111; [15]
  MIC: 0.1 µg/mL
Escherichia coli 0-111; [8]
  Growth inhibiting Concentration of antibiotics: > 1 µg/mL
Escherichia coli 0-111; [9]
  Growth inhibiting Concentration of antibiotics: 1 µg/mL
Escherichia coli 0-111; [10]
  Growth inhibiting Concentration of antibiotics: 1 µg/mL
Escherichia coli 0-111; [11]
  Growth inhibiting Concentration of antibiotics: 0.01 µg/mL

— patent US5656591A, “Antimicrobial agents and method for treating products therewith” (Morinaga Milk Industry Co., Ltd., priority 1992, dated 1997)
